According to ChEMBL document CHEMBL1201862, “PubChem BioAssay data set” (2004):
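The compound was tested at five concentrations on cells cultured in 96-well plates, with a 48-hour exposure period. GI50: concentration for 50% inhibition of growth.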 Calls of active or inactive are those of the source. No stated cut-off is given here; in the data, active = GI50 up to about 1.1 µM and inactive = higher.

Columns and labels:
Test in all cases: inhibition of tumour cell growth, NCI panel, 48 h
[1] = system: ACHN
[2] = system: CCRF-CEM
[3] = system: HCC 2998
[4] = system: HOP-92
[5] = system: KM12
[6] = system: M14
[7] = system: OVCAR-5
[8] = system: OVCAR-8
[9] = system: RXF 393
[10] = system: SK-MEL-28
[11] = system: SK-OV-3
[12] = system: SN12C
[13] = system: UACC-62
[14] = system: SR

Measured: GI50

O=C1NC(=O)C2C(=O)NC(=O)C1C2(c1ccccc1)c1ccc(Cl)cc1 (configuration not stated)
inactive: [1] > 100 µM | [2] > 100 µM | [3] > 100 µM | [4] > 100 µM | [5] > 100 µM | [6] > 100 µM | [7] > 100 µM | [8] > 100 µM | [9] > 100 µM | [10] > 100 µM | [11] > 100 µM | [12] > 100 µM | [13] > 100 µM

O=C(Nc1c(Cl)cc([N+](=O)[O-])cc1Cl)C(=O)C(C1OC(=O)c2ccccc21)[N+](=O)[O-] (configuration not stated)
inactive: [1] > 100 µM | [2] > 100 µM | [3] > 100 µM | [4] 15.1 µM | [5] > 100 µM | [6] > 100 µM | [7] > 100 µM | [8] > 100 µM | [9] > 100 µM | [10] > 100 µM | [11] > 100 µM | [12] > 100 µM | [14] > 100 µM | [13] > 100 µM

CC1=NOC(=O)C1/N=N/c1ccc(Br)c(C)c1 (configuration not stated)
inactive: [1] 17.8 µM | [2] 11.8 µM | [3] 24.8 µM | [4] 17.3 µM | [5] 26.1 µM | [6] 20.5 µM | [7] 24.9 µM | [8] 17.9 µM | [9] 19.7 µM | [10] 26.6 µM | [11] 34.8 µM | [12] 18.2 µM | [13] 19.3 µM

NC12CC3CC(C1)CC(Cl)(C3)C2
inactive: [1] > 100 µM | [2] > 100 µM | [3] > 100 µM | [4] > 100 µM | [5] > 100 µM | [6] > 100 µM | [7] > 100 µM | [8] > 100 µM | [9] > 100 µM | [10] > 100 µM | [11] > 100 µM | [13] > 100 µM

O=C(CCN(C(=O)O)S(=O)(=O)c1ccc(NC(=O)c2ccccc2)cc1)NC1CCCCC1
inactive: [1] > 100 µM | [2] 27.6 µM | [3] > 100 µM | [4] > 100 µM | [5] > 100 µM | [6] > 100 µM | [7] > 100 µM | [8] > 100 µM | [10] > 100 µM | [11] > 100 µM | [12] > 100 µM | [14] 17.8 µM | [13] > 100 µM

O=C(CCC(=O)C1CCC/C1=N/O)Nc1ccc(Cl)cc1 (configuration not stated)
inactive: [1] > 100 µM | [2] > 100 µM | [3] > 100 µM | [4] > 100 µM | [5] > 100 µM | [6] > 100 µM | [7] > 100 µM | [8] > 100 µM | [10] > 100 µM | [11] > 100 µM | [12] > 100 µM | [14] > 100 µM | [13] > 100 µM

CCOC(=O)C1=C(N)N(c2ccccc2)/C(=C(/C#N)c2nc3ccccc3[nH]2)S1
inactive: [1] > 100 µM | [2] > 100 µM | [4] > 100 µM | [6] > 100 µM | [7] > 100 µM | [8] > 100 µM | [9] > 100 µM | [10] > 100 µM | [11] > 100 µM | [12] > 100 µM | [13] > 100 µM

C=C1C(=O)C23C(O)CC4C5(C)CCCC4(C(O)OC5)C2C(OC(C)=O)CC1C3O (configuration not stated)
inactive: [1] 12.2 µM | [2] 1.88 µM | [3] 18.2 µM | [4] 3.52 µM | [5] 9.02 µM | [6] 3.41 µM | [7] 18 µM | [8] 2.75 µM | [10] 10.5 µM | [11] 19.7 µM | [12] 10.6 µM | [14] 3.01 µM | [13] 6.73 µM

CC(C)=CCCC(C)[C@H]1CC(O)C2(C)C3=CCC4C(C)(C)[C@@H](O)CC[C@]4(C)C3=CC[C@]12C (some centres not stated)
inactive: [2] 5.25 µM | [4] 3.27 µM | [5] 4.36 µM | [6] 3.27 µM | [7] 25 µM | [8] 1.8 µM | [9] 2.92 µM | [11] 7.82 µM | [12] 3.14 µM | [14] 11.6 µM | [13] 4.23 µM

CC(=O)N/C=C/c1cc(O)ccc1O
inactive: [1] 18.9 µM | [2] 25.3 µM | [3] 50.8 µM | [4] 18.7 µM | [5] 37.7 µM | [6] 33.3 µM | [7] 29.4 µM | [8] 45.7 µM | [9] 31.7 µM | [10] 32.8 µM | [11] > 58.5 µM | [12] 29.9 µM | [14] 22 µM | [13] 32.2 µM
